Assay [1] deals with Human plasma kallikrein (Homo sapiens (Human), UniProt P03952). Kind of assay: Determination of the IC50 for plasma kallikrein (fluorogenic substrate H-DPro-Phe-Arg-AFC). The settings on record: 37° C., read-out: IC50 (human PKal). It is filed as biochemical. As to the method: Determination of the IC50 Plasma Kallikrein Plasma kallikrein inhibitory activity in vitro was determined using standard published methods (see e.g. Johansen et al., Int. J. Tiss. […] Shori et al., Biochem. Pharmacol., 1992, 43, 1209; Stürzebecher et al., Biol. Chem. Hoppe-Seyler, 1992, 373, 1025). Human plasma kallikrein (Protogen) was incubated at 37° C. with the fluorogenic substrate […] and various concentrations of the test compound.

The target in assay [2] is Human KLK1 (Homo sapiens (Human), UniProt P06870). In words: Determination of the IC50 for KLK1 (fluorogenic substrate H-DVal-Leu-Arg-AFC). The class given is biochemical. The settings on record: human KLK1, 37° C. The method, then:
Selected compounds were further screened for inhibitory activity against the related enzyme KLK1. The ability of the compounds of formula (I) to inhibit KLK1 may be determined using the following biological assay:
Determination of the IC50 for KLK1
KLK1 inhibitory activity in vitro was determined using standard published methods (see e.g. Johansen et al., Int. J. Tiss. Reac. 1986, 8, 185; Shori et al., Biochem. Pharmacol., 1992, 43, 1209; Stürzebecher et al., Biol. Chem. Hoppe-Seyler, 1992, 373, 1025). Human KLK1 (Callbiochem) was incubated at 37° C. with the fluorogenic substrate H-DVal-Leu-Arg-AFC and various concentrations of the test compound. Residual enzyme activity (initial rate of reaction) was determined by measuring the change in optical absorbance at 410 nm and the IC50 value for the test compound was determined.

Human KLK1, sequence (P06870 25-262): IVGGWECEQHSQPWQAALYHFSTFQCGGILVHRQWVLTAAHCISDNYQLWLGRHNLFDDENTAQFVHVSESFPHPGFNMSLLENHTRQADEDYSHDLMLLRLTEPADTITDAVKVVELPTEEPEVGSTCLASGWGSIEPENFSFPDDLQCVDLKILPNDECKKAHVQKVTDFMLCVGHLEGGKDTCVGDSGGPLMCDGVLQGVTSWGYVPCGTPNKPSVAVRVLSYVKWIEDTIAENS
Human plasma kallikrein, sequence (P03952 391-638 limits assumed): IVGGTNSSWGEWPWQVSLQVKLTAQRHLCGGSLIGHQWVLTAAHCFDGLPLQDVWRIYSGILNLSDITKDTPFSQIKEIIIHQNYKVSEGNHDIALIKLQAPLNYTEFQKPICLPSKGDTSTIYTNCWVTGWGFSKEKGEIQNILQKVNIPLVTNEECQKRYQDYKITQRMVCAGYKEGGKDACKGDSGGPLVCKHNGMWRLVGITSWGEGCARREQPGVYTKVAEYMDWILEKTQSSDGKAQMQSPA
Human plasma kallikrein, sequence (P03952 20-390 partner limits assumed): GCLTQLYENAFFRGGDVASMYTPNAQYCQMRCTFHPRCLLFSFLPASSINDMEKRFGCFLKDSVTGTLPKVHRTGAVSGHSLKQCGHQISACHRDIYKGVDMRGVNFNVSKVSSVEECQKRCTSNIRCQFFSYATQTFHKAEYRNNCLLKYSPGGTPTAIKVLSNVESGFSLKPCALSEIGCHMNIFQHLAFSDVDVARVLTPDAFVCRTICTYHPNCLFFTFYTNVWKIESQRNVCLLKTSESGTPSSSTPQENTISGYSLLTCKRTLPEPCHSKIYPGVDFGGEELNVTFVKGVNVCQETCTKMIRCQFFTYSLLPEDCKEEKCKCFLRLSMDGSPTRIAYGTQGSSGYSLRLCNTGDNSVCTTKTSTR

As to `COc1cccc(CN2CCN(Cc3cncc(C(=O)NCc4ccc5c(N)nccc5c4)c3)CC2)c1` [Example 49, N-[(1-Aminoisoquinolin-6-yl)methyl]-5-({4-[(3-methoxyphenyl)methyl]piperazin-1-yl}methyl)pyridine-3-carboxamide], the IC50 in assay [1] is 6.99 µM; in assay [2], greater than 10 µM.
Regarding `Nc1nccc2cc(CNC(=O)c3cncc(CN4CCN(CCCc5ccccc5)CC4)c3)ccc12` [Example 50, N-[(1-Aminoisoquinolin-6-yl)methyl]-5-{[4-(3-phenylpropyl)piperazin-1-yl]methyl}pyridine-3-carboxamide], the IC50 in assay [1] is 10 µM; in assay [2], greater than 10 µM.
In the case of `Nc1nccc2cc(CNC(=O)c3cncc(CN4CCN(CCc5ccccc5)CC4)c3)ccc12` [Example 51, N-[(1-Aminoisoquinolin-6-yl)methyl]-5-{[4-(2-phenylethyl)piperazin-1-yl]methyl}pyridine-3-carboxamide], the half-inhibitory concentration (IC50) in assay [1] was 8.11 µM; in assay [2], greater than 10 µM.
In the case of `Nc1nccc2cc(CNC(=O)c3cncc(CN4CCN(CC(=O)O)CC4)c3)ccc12` [Example 52, {4-[(5-{[(1-Aminoisoquinolin-6-yl)methyl]carbamoyl}pyridin-3-yl)methyl]piperazin-1-yl}acetic acid], the IC50 in assay [1] is 10 µM; in assay [2], greater than 10 µM.
On to `Nc1nccc2cc(CNC(=O)c3cncc(Cc4ccc(N5CCCC5=O)nc4)c3)ccc12` [Example 53, N-[(1-Aminoisoquinolin-6-yl)methyl]-5-{[6-(2-oxopyrrolidin-1-yl)pyridin-3-yl]methyl}pyridine-3-carboxamide], for which the results for the IC50 in assay [1] and in assay [2] were 0.2 µM and 3.86 µM, respectively.
In the case of `Nc1nccc2cc(CNC(=O)c3cncc(Cc4ccc(F)nc4)c3)ccc12` [Example 54, N-[(1-Aminoisoquinolin-6-yl)methyl]-5-[(6-fluoropyridin-3-yl)methyl]pyridine-3-carboxamide], the 50% inhibitory concentration (IC50) was determined as 14.6 µM in assay [1] and 10.7 µM in assay [2].
Turning to `Nc1nccc2cc(CNC(=O)c3cncc(Cc4ccc(N5CCCC5)nc4)c3)ccc12` [Example 55, N-[(1-Aminoisoquinolin-6-yl)methyl]-5-{[6-(pyrrolidin-1-yl)pyridin-3-yl]methyl}pyridine-3-carboxamide], the 50% inhibitory concentration (IC50) is 0.103 µM in assay [1] and 4.96 µM in assay [2].
Taken in the same sequence, the figures for `Nc1nccc2cc(CNC(=O)c3cncc(Cc4ccc(N5CCCCC5)nc4)c3)ccc12` [Example 56, N-[(1-Aminoisoquinolin-6-yl)methyl]-5-{[6-(piperidin-1-yl)pyridin-3-yl]methyl}pyridine-3-carboxamide] were 0.313 µM and greater than 40 µM.
Regarding `Nc1nccc2cc(CNC(=O)c3cncc(Cc4ccc(N5CCC(F)(F)C5)nc4)c3)ccc12` [Example 57, N-[(1-Aminoisoquinolin-6-yl)methyl]-5-{[6-(3,3-difluoropyrrolidin-1-yl)pyridin-3-yl]methyl}pyridine-3-carboxamide], the IC50 in assay [1] was 0.24 µM; in assay [2] it was greater than 40 µM.
On to `CC1CCCN1c1ccc(Cc2cncc(C(=O)NCc3ccc4c(N)nccc4c3)c2)cn1` (stereo not drawn) [Example 58, N-[(1-Aminoisoquinolin-6-yl)methyl]-5-{[6-(2-methylpyrrolidin-1-yl)pyridin-3-yl]methyl}pyridine-3-carboxamide], for which the IC50 in assay [1] amounted to 0.153 µM; in assay [2], 6.52 µM.
`Nc1nccc2cc(CNC(=O)c3cncc(Cc4ccc(N5CCC(O)C5)nc4)c3)ccc12` (stereo not drawn) [Example 59, N-[(1-Aminoisoquinolin-6-yl)methyl]-5-{[6-(3-hydroxypyrrolidin-1-yl)pyridin-3-yl]methyl}pyridine-3-carboxamide]: the concentration for half-maximal inhibition (IC50) was found to be 0.417 µM in assay [1] and 6.01 µM in assay [2].
Regarding `Nc1nccc2cc(CNC(=O)c3cncc(Cc4ccc(N5CCC(F)C5)nc4)c3)ccc12` (stereo not drawn) [Example 60, N-[(1-Aminoisoquinolin-6-yl)methyl]-5-{[6-(3-fluoropyrrolidin-1-yl)pyridin-3-yl]methyl}pyridine-3-carboxamide], the concentration for half-maximal inhibition (IC50) in assay [1] was 0.137 µM; in assay [2], 8.69 µM.

Values taken from patent publication US10221161B2, “Inhibitors of plasma kallikrein” (Kalvista Pharmaceuticals Limited, priority 2013, dated 2019).
